Structures can show the parent of a compound that is named as a salt. Where two headings read alike, the source gives them in different places.
Molecular target: hERG (Homo sapiens, UniProt Q12809)
Assay: cell-based

hERG, sequence (Q12809 whole entry): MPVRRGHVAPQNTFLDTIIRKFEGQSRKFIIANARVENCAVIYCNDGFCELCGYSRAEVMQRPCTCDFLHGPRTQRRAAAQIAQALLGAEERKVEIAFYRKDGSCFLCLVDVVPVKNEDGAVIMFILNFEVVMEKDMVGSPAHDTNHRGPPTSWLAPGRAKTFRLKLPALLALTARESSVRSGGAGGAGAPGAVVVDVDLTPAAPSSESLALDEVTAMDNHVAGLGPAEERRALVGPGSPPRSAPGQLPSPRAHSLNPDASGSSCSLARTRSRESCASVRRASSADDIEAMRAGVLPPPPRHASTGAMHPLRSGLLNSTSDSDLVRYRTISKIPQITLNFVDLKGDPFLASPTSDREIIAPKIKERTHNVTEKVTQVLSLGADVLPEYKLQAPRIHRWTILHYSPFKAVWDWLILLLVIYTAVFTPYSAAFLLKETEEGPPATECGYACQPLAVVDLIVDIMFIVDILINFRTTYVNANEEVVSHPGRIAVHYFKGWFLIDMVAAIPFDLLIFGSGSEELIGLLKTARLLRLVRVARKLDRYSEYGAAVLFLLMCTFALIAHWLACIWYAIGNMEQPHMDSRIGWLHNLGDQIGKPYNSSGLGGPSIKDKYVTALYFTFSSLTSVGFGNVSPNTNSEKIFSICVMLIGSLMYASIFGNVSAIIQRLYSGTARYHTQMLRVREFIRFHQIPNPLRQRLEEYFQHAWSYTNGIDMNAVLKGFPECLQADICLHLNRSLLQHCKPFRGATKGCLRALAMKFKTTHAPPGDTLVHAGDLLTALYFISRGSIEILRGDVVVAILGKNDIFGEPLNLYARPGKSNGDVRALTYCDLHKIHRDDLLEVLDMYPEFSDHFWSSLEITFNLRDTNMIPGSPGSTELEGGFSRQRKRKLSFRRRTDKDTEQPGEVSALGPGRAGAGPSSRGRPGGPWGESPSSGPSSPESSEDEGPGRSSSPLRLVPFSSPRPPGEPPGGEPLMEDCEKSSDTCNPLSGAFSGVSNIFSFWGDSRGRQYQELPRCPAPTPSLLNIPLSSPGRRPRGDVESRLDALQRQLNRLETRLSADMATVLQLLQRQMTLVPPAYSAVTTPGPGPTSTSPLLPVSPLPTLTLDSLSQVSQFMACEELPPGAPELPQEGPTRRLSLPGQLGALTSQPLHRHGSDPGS

Compound	IC50 ((-LOG10(IC50), µM)) [µM]	IC50 [µM]
C=C(C)CN(CC)c1c([N+](=O)[O-])cc(C(F)(F)F)cc1[N+](=O)[O-] [Ethalfluralin]	36	
CCN(CC)c1nc(C)cc(OP(=S)(OC)OC)n1 [Pirimiphos-methyl]	50.9	
CCN1CCCC1CNC(=O)C(O)(c1ccccc1)c1ccccc1 (stereo not drawn) [Epicainide]	19.7	
CCCCCCCCCCCCCC[P+](CCCCCC)(CCCCCC)CCCCCC [Trihexyltetradecylphosphonium chloride]	0.875	
C=CCOC(Cn1ccnc1)c1ccc(Cl)cc1Cl (stereo not drawn) [Imazalil sulfate]	21.3	
CCCOc1sc(C(=O)N2CCC(c3cc(CN)ccc3F)CC2)c(C)c1Br [AVE8923]	4.49	
COc1ccc(C(=O)CC(=O)c2ccc(C(C)(C)C)cc2)cc1 [1-(4-tert-Butylphenyl)-3-(4-methoxyphenyl)propane-1,3-dione]	21.3	
O=C1c2ccccc2C(=O)N1CCc1noc(-c2ccc(CN3CCCCCC3)s2)n1 [PharmaGSID_48172]	23.4	
O[C@@H](COc1cccc2ncccc12)CN1CCN([C@@H]2c3ccccc3[C@@H]3[C@H](c4ccccc42)C3(F)F)CC1 [LY335979 trihydrochloride]		12
C[N+]1(CC2COC(c3ccccc3)(C3CCCCC3)O2)CCCCC1 (stereo not drawn) [Oxapium iodide]	14	
N#CCCC(Br)(C#N)CBr (stereo not drawn) [1,2-Dibromo-2,4-dicyanobutane]	36.7	
CCCCCCn1cc[n+](C)c1 [1-Hexyl-3-methylimidazolium tetrafluoroborate]	60.6	
O=C1C=CC(=O)c2ccccc21 [1,4-Naphthoquinone]	21	
Cc1cc(C(C)(C)C)c(O)c(C(C)(C)C)c1 [Butylated hydroxytoluene]	20.7	
CN1CCC(N(Cc2cccs2)c2ccccc2)CC1 [Thenalidine]	4.96	
c1ccc(Nc2ccc(Nc3ccccc3)cc2)cc1 [N,N'-Diphenyl-p-phenylenediamine]	41	
CCc1cc(C(C)(C)C)c(O)c(C(C)(C)C)c1 [2,6-Di-tert-butyl-4-ethylphenol]	19.5	
CCC(C)c1cc([N+](=O)[O-])cc([N+](=O)[O-])c1OC(=O)C=C(C)C (stereo not drawn) [Binapacryl]	30.9	
O=[N+]([O-])c1ccc(Oc2ccc(C(F)(F)F)cc2[N+](=O)[O-])cc1 [Fluorodifen]	7.76	
CN1C2CCC(C)(C)C1CC(OC(=O)C(O)(c1cccs1)c1cccs1)C2 (stereo not drawn) [Mazaticol]	21.3	
CCCCCCCCCCCCCCCC[N+](C)(C)CCN(Cc1ccc(OC)cc1)c1ncccn1 [Thonzonium bromide]	0.409	

Compound	IC50 ((-LOG10(IC50), µM)) [µM]	IC50 [µM]
OCC(c1ccc(Cl)cc1)c1ccc(Cl)cc1 [2,2-Bis(4-chlorophenyl)ethanol]	49	
CN1C(=O)[C@@H](NC(=O)c2cc3ccccc3[nH]2)N=C(c2ccccc2)c2ccccc21 [Devazepide]	9.52	
O=C1CC2(CCCC2)CC(=O)N1CCNCC1COc2ccccc2O1 (stereo not drawn) [Binospirone mesylate]	19	
CCC(CN)=C(c1ccccc1)c1ccccc1 [Etifelmine hydrochloride]	20.5	
CCCCCCCCCCCCn1cc[n+](C)c1 [1-Dodecyl-3-methylimidazolium hexafluorophosphate]	4.2	
CCCCCC1Nc2cc(C(F)(F)F)c(S(N)(=O)=O)cc2S(=O)(=O)N1 (stereo not drawn) [Penflutizide]	23	
CCCCCCCC[n+]1ccn(C)c1 [1-Methyl-3-octylimidazolium trifluoromethanesulfonate]	21.2	
c1ccc(C(O[C@@H]2CCCN(CCc3ccc4c(c3)OCO4)C2)c2ccccc2)cc1 [Zamifenacin]	0.838	
CCN(CC)c1ccc(N)cc1 [N,N-Diethyl-p-phenylenediamine]	35.6	
Cc1cccc(Nc2ccccc2)c1 [3-Methyl-N-phenylaniline]	52.9	
Cc1cc2c(OCC(CNC(C)(C)C)OC(=O)c3ccccc3)cccc2[nH]1 (stereo not drawn) [Bopindolol]	21.3	
O=CC=C(c1ccccc1)c1ccccc1 [3,3-Diphenylacrylaldehyde]	42.4	
CC[N+]1(C)CCCC1 [1-Ethyl-1-methylpyrrolidinium iodide]	19.5	
CSCCCN=C=S [3-(Methylthio)propyl isothiocyanate]	36.7	
O=C(N[C@@H]1N=C(c2ccccc2F)c2cccc3c2N(CC3)C1=O)c1cc2ccccc2[nH]1 [N-[(3R)-1-(2-Fluorophenyl)-4-oxo-3,4,6,7-tetrahydro[1,4]diazepino[6,7,1-hi]indol-3-yl]-1H-indole-2-carboxamide]	8.82	
Cc1cccc(Oc2ccccc2)c1 [1-Methyl-3-phenoxybenzene]	23.9	
C/C=C/C=C/CCCCCCCO [8,10-Dodecadien-1-ol]	22.7	
Cc1nc(-c2ccc3c(c2)CCN(CCC2CCC(NC(=O)/C=C/c4ccc(F)cc4)CC2)CC3)no1 (stereo not drawn) [SB413217A]	1.02	
CCCN(CCC)C(=O)Cc1c(-c2ccc(Cl)cc2)nc2ccc(Cl)cn12 [Alpidem]	20.5	
CCCCCCCCOCCCN [3-(Octyloxy)propan-1-amine]	43.6	
O=C(c1ccc(F)cc1)C1CCN(CCn2c(=S)[nH]c3ccccc3c2=O)CC1 [Altanserin hydrochloride]	0.817	

Compound	IC50 ((-LOG10(IC50), µM)) [µM]	IC50 [µM]
CCCc1ccc(OCC(=O)N2CCN(C(=O)COc3ccc(CCC)cc3OC)CC2)c(OC)c1 [Simetride]	1.4	
CC(C)OC(=O)C(O)(c1ccc(Cl)cc1)c1ccc(Cl)cc1 [Chloropropylate]	22.7	
CCCCCCC(C)OC(=O)COc1nc(F)c(Cl)c(N)c1Cl (stereo not drawn) [Fluroxypyr-meptyl]	38.9	
Fc1ccc(Oc2ccnc3cc(Cl)cc(Cl)c23)cc1 [Quinoxyfen]	22.7	
O=C1NCN(c2ccccc2)C12CCN(CCCOc1ccc(F)cc1)CC2 [AMI-193]	0.786	
COC(=O)C(C)Oc1ccc(Oc2ncc(C(F)(F)F)cc2Cl)cc1 (stereo not drawn) [Haloxyfop-methyl]	35.1	
CN1CCC(=C2c3ccccc3CCc3sccc32)CC1 [Pizotyline]	10.3	
CCCCNc1ccc(C(=O)OCCN(CC)CC)cc1 [Depolipon]	19	
CCOC(=O)C1(c2ccccc2)CCN(CCc2ccc(N)cc2)CC1 [Anileridine]	18.3	
CCCCCC(C)OC(=O)COc1ccc(Cl)c2cccnc12 (stereo not drawn) [Cloquintocet-mexyl]	16.1	
CCCN(CCc1cccs1)[C@H]1CCc2c(O)cccc2C1 [Rotigotine]	3.01	
CCCC[P+](C)(CCCC)CCCC [Tributylmethylphosphonium methyl sulfate]	35.1	
CCCCCCCC[S+]([O-])C(C)Cc1ccc2c(c1)OCO2 (stereo not drawn) [Piperonyl sulfoxide]	38.2	
CC(C)CCOC(=O)C=Cc1ccccc1 [Isoamyl cinnamate]	39.1	
BrC1CCC(Br)C(Br)CCC(Br)C(Br)CCC1Br (stereo not drawn) [1,2,5,6,9,10-Hexabromocyclododecane]	19.2	
CCC(Cc1ccccc1)(C(=O)c1ccc(N2CCOCC2)cc1)N(C)C (stereo not drawn) [2-Benzyl-2-(dimethylamino)-1-[4-(morpholin-4-yl)phenyl]butan-1-one]	19.5	
C=CC(=O)OCC1CC2CC1C1CCC(COC(=O)C=C)C21 (stereo not drawn) [Tricyclodecanedimethanol diacrylate]	36	
COC(=O)C(C)Oc1ccc(Oc2ccc(Cl)cc2Cl)cc1 (racemic) [(+-)-Diclofop-methyl]	46.2	
CC(C)COC(=O)C=Cc1ccccc1 [Isobutyl 3-phenylacrylate]	50.9	
CN1CCN(C2=Nc3ccccc3Oc3ccc(Cl)cc32)CC1 [Loxapine succinate]	12	
CCCCCNC(=N)N/N=C/c1c[nH]c2ccc(OC)cc12 [Tegaserod]	9.16	

Compound	IC50 ((-LOG10(IC50), µM)) [µM]	IC50 [µM]
CC(=O)NC1(c2cccc(F)c2)CCN(CC[C@@]2(c3ccc(Cl)c(Cl)c3)CN(c3ccccc3)C(=O)CO2)CC1 [SAR102779]	9.08	
CCC(=O)C(CCN(C)C)(c1ccccc1)c1ccccc1 [Normethadone]	15.1	
CCN(CC)CCSC(=O)C(c1ccccc1)c1ccccc1 [Thiphenamil]	3.01	
O[C@@H](CNC[C@H](O)[C@H]1CCc2cc(F)ccc2O1)[C@@H]1CCc2cc(F)ccc2O1 (racemic) [rac Nebivolol hydrochloride]	2.49	
C[C@]12CC[C@H]3[C@@H](CCC4=CC(=O)CC[C@@H]43)[C@@H]1CC[C@@H]2OC(=O)CCC1CCCCC1 [Nandrolone cyclohexylpropionate]	15.1	
CC1CCC(C(C)C)C(OC(=O)c2ccccc2N)C1 (stereo not drawn) [Menthyl anthranilate]	30.5	
CN1CCN(C2Cc3ccccc3Sc3ccc(Cl)cc32)CC1 (stereo not drawn) [Octoclothepine maleate]	0.849	
CCN(CC)CCOC(=O)C(O)(c1ccccc1)c1ccccc1 [Benactyzine]	11.5	
CC1(c2ccc(Oc3ccccc3)cc2)OC(=O)N(Nc2ccccc2)C1=O (stereo not drawn) [Famoxadone]	22.9	
CCCCCCC(C)Nc1ccc(Nc2ccccc2)cc1 (stereo not drawn) [N-(1-Methylheptyl)-N'-phenyl-1,4-benzenediamine]	34.7	
CCCCCCCCCCn1cc[n+](CCCCCCCCCC)c1C [1,3-Didecyl-2-methylimidazolium chloride]	0.51	
Cc1nc2n(c(=O)c1CCN1CCC(C(=O)c3ccc(F)cc3)CC1)CCS2 [Setoperone]	9.89	
CCCCCCCCCCCCCC[P+](CCCCCC)(CCCCCC)CCCCCC.N#C[N-]C#N [Trihexyltetradecylphosphonium dicyanamide]	0.55	
CCN1CCCC1CNC(=O)c1cc(S(N)(=O)=O)ccc1OC (stereo not drawn) [Sulpiride]	34.7	
CCCCCCCCCCCCN1CCOCC1 [4-Dodecylmorpholine]	15.5	
CCCCCCCC[N+](C)(CCCCCCCC)CCCCCCCC [Methyltrioctylammonium chloride]	0.616	
O=C(CCCN1CCN(c2ccc(F)cc2)CC1)NC1c2ccccc2CSc2ccccc21 (stereo not drawn) [Monatepil]	2.01	
CCc1ccc(C(c2ccc(CC)cc2)C(Cl)Cl)cc1 [p,p'-Ethyl-DDD]	17.7	
CC(C)(COC(=O)c1ccccc1)COC(=O)c1ccccc1 [Neopentyl glycol dibenzoate]	13.8	
CCCCCCCCCCn1cc[n+](C)c1 [1-Decyl-3-methylimidazolium bromide]	15	
C[C@@H](NCCCc1cccc(C(F)(F)F)c1)c1cccc2ccccc12 [Cinacalcet hydrochloride]	12	

— paper PMC8869358, “High-Throughput Chemical Screening and Structure-Based Models to Predict hERG Inhibition” (Biology, 2022)
